Assay results taken from US8394825B2, “Compound” (Sterix Limited, priority 2007, dated 2013).

Tests used:
uterotrophic activity = settings: cited from earlier work; for oestrogenicity: rat, in vivo
E1-STS [1] = molecular target: T1, E1-STS (Homo sapiens, UniProt P08842); settings: cited from earlier work
T1 sequence (P08842 22-583): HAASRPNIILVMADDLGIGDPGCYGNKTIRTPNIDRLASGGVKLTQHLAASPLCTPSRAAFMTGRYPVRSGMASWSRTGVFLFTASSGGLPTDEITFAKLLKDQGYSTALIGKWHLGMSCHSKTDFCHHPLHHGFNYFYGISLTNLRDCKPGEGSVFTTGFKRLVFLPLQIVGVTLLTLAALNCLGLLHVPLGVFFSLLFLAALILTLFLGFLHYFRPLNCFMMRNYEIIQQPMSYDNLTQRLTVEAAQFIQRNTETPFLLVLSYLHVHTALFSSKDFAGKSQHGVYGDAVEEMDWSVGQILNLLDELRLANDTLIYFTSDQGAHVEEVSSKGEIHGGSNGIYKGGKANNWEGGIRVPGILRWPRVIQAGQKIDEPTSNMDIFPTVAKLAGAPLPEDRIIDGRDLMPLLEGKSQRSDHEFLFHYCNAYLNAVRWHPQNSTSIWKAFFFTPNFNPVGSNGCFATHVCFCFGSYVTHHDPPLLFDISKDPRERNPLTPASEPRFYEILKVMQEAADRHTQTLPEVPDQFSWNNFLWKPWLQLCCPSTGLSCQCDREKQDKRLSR

E1-STS [2] = molecular target: T1, E1-STS; design: endogenous in cells; host or cells: MCF-7 cells (intact); settings: intact MCF-7 cells, 0.1 nM; cited from earlier work
[3] = cited from earlier work
DU145 cells = experiment: Antiproliferative assay in DU145 cells, WST-1 cell proliferation assay, 96 hours (GI50); type: cell-based; settings: Homo sapiens, DU-145, 96 hours post-treatment
In short: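 DU145 cells seeded at 5000 cells/well, treated with […] compound or vehicle for 96 h. Viability read by WST-1, expressed as percent of mean control, GI50 derived; triplicate experiments.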

Row | Compound | GI50 (DU145 cells; triplicate) [µM] | melting point [°C] | other results
1 | CC12CCC3c4ccc(OS(N)(=O)=O)cc4CCC3C1CCC2=O (stereo not drawn) [EMATE, oestrone-3-sulphamate] |  |  | oestrogenicity (uterotrophic activity): potent oestrogenic properties; oral uterotrophic activity relative to estradiol (uterotrophic activity; rats, oral): 100 times; mode of E1-STS enzyme inhibition (inactivation) (E1-STS [1]): time- and concentration-dependent manner; inhibition of E1-STS activity (E1-STS [2]): more than 99%
2 | oestrone-3-N-sulphamate |  |  | mode of E1-STS enzyme inhibition (inactivation) (E1-STS [1]): weaker non-time-dependent inactivators
3 | oestrone-3-S-sulphamate |  |  | mode of E1-STS enzyme inhibition (inactivation) (E1-STS [1]): weaker non-time-dependent inactivators
4 | C[C@]12CC[C@@H]3c4ccc(OS(=O)(=O)O)cc4CC[C@H]3[C@@H]1CCC2=O [E1S, oestrone sulphate] |  |  | half-life in blood [3]: 10 to 12 h
5 | COc1cc2c(cc1OS(N)(=O)=O)CC[C@@H]1[C@@H]2CC[C@]2(C)C(=O)CC[C@@H]12 [2-methoxyoestrone-3-O-sulphamate] |  |  | oestrogenicity (uterotrophic activity): devoid of oestrogenicity; potency as steroid sulphatase inhibitor relative to EMATE (E1-STS [1]): equipotent with EMATE
6 | COc1cc2c(cc1O)CCN(C(=O)c1ccccc1OC)C2=O [compound 138, 6-Hydroxy-7-methoxy-2-(2-methoxybenzoyl)-3,4-dihydro-2H-isoquinoline-1-one] | < 10 | 199 to 200 | 
7 | COc1cc2c(cc1O)CCN(Cc1ccccc1OC)C2=O [compound 161, 6-Hydroxy-7-methoxy-2-(2-methoxybenzyl)-3,4-dihydro-2H-isoquinolin-1-one] | > 100 | 164 to 165 | 
8 | COc1cc2c(cc1O)CCN(C(=O)c1ccc(OC)c(OC)c1)C2=O [compound 142, 2-(3,4-Dimethoxybenzoyl)-6-hydroxy-7-methoxy-3,4-dihydro-2H-isoquinoline-1-one] | < 10 | 199 to 200 | 
9 | COc1ccc(C(=O)N2CCc3cc(OCc4ccccc4)c(OC)cc3C2=O)cc1OC [compound 133, 6-(Benzyloxy)-7-methoxy-2-(3,4-dimethoxybenzoyl)-3,4-dihydro-2H-isoquinoline-1-one] | > 100 | 200 to 201 | 
10 | COc1cc2c(cc1O)CCN(S(=O)(=O)c1cccc(Cl)c1)C2 [compound 182, 2-(3-Chloro-benzenesulfonyl)-6-hydroxy-7-methoxy-1,2,3,4-tetrahydroisoquinoline] | > 100 | 175 to 178 | 
11 | COc1cc2c(cc1OCc1ccccc1)CCN(C(=O)c1cc(OC)c(OC)c(OC)c1)C2=O [compound 134, 6-Benzyloxy-7-methoxy-2-(3,4,5-trimethoxybenzoyl)-3,4-dihydro-2H-isoquinolin-1-one] | > 100 | 195 to 196 | 
12 | COc1cc2c(cc1OS(N)(=O)=O)CC(C)(C)N(C(=O)c1cc(OC)c(OC)c(OC)c1)C2 [compound 236, Sulfamic acid 7-methoxy-3,3-dimethyl-2-(3,4,5-trimethoxy-benzoyl)-1,2,3,4-tetrahydro-isoquinolin-6-yl ester] |  | 172 to 176 | GI50 (DU145 cells; 50% growth inhibition): > 100 µM
13 | COc1ccc(S(=O)(=O)N2CCc3cc(O)c(OC)cc3C2=O)cc1 [compound 202, 6-Hydroxy-7-methoxy-2-(4-methoxy-benzenesulfonyl)-3,4-dihydro-2H-isoquinolin-1-one] | > 100 | 202 to 204 | 
14 | COc1cc2c(cc1O)CCN(S(=O)(=O)c1ccccc1OC)C2=O [compound 200, 6-Hydroxy-7-methoxy-2-(2-methoxy-benzenesulfonyl)-3,4-dihydro-2H-isoquinolin-1-one] | > 100 | 222 to 224 | 
15 | COc1cc2c(cc1O)CCN(Cc1ccc(OC)c(OC)c1OC)C2 [compound 58, 6-Hydroxy-7-methoxy-2-(2,3,4-trimethoxybenzyl)-1,2,3,4-tetrahydroisoquinoline] | > 100 | 65 to 66 | 
16 | COc1cc(OC)cc(C(=O)N2CCc3cc(OCc4ccccc4)c(OC)cc3C2=O)c1 [compound 129, 6-(Benzyloxy)-2-(3,5-dimethoxybenzoyl)-7-methoxy-3,4-dihydro-2H-isoquinolin-1-one] | > 100 | 180 to 181 | 
17 | COc1cc2c(cc1O)CCN(Cc1cccc(Cl)c1)C2 [compound 67, 2-(3-Chlorobenzyl)-6-hydroxy-7-methoxy-1,2,3,4-tetrahydroisoquinoline] | 50 to 100 | 118 to 119.5 | 
18 | COc1cc2c(cc1OCc1ccccc1)CCN(Cc1cccc(Oc3ccccc3)c1)C2 [compound 8, 6-Benzyloxy-7-methoxy-2-(3-phenoxybenzyl)-1,2,3,4-tetrahydroisoquinoline] | > 100 | 111 to 112 | 
19 | COc1cc2c(cc1O)CCN(Cc1cccc(O)c1)C2 [compound 70, 2-(3-Hydroxybenzyl)-7-methoxy-1,2,3,4-tetrahydroisoquinolin-6-ol] | > 100 | 177 to 178 | 
20 | COc1cc2c(cc1OCc1ccccc1)CCN(S(=O)(=O)c1cccc(C)c1)C2 [compound 171, 6-Benzyloxy-7-methoxy-2-(toluene-3-sulfonyl)-1,2,3,4-tetrahydroisoquinoline] | > 100 | 144 to 147 | 
21 | COc1cc2c(cc1O)CCN(Cc1cc(OC)c(OC)c(OC)c1)C2 [compound 54, 6-Hydroxy-7-methoxy-2-(3,4,5-trimethoxybenzyl)-1,2,3,4-tetrahydroisoquinoline] | < 10 | 170 to 171 | 
22 | COc1cc2c(cc1O)CCN(C(=O)c1cc(OC)c(OC)c(OC)c1)C2 [compound 120, 6-Hydroxy-7-methoxy-2-(3,4,5-trimethoxybenzoyl)-1,2,3,4-tetrahydroisoquinoline] | < 10 | 172 to 173 | 
23 | COc1cc2c(cc1OCc1ccccc1)CCN(Cc1cccc(OC)c1OC)C2 [compound 20, 6-Benzyloxy-7-methoxy-2-(2,3-dimethoxybenzyl)-1,2,3,4-tetrahydroisoquinoline] | 10 to 50 | 106 to 107 | 
